What was measured:
[1] = molecular target: CYP 2C9 (Homo sapiens, UniProt P11712); assay: CYP inhibition test, human liver microsomes, CYP2C9
Procedure: (§1) • 1. Test purpose: to evaluate the inhibitory ability of some of the example compounds of the present invention against CYP1A2, 2B6, 2C8, 2C9, 2C19, 2D6 and 3A4 via human liver microsomes. • 2. […] Test method:
(§2) • 1. K/Mg buffer: the components were 0.1 mol/L potassium phosphate and 5 mmol/L magnesium chloride with pH 7.4±0.1, preheated. • 2. Solution of the test compound: the test compound was dissolved in dimethyl sulfoxide to prepare a stock solution of 10 mmol/L. 8 μL of 10 mmol/L stock solution was transferred to a 96-well plate containing 12 μL of acetonitrile as the highest concentration point, at 3-fold dilution, for 8 concentrations. • 3. NADPH solution: 66.7 mg of NADPH was dissolved in 10 mL of 0.1 mol/L K/Mg buffer to obtain 8 mmol/L NADPH solution with pH 7.4. • 4. Human liver microsomal stock solution: human liver microsomes were dissolved in 0.1 mol/L K/Mg buffer to obtain 20 mg/mL stock solution. • 5. Human liver microsomal working solution: 10 μL of 20 mg/mL human liver microsomal stock solution was taken and added into 990 μL of 0.1 mol/L K/Mg buffer to prepare 0.2 mg/mL human liver microsomal solution. • 6. […]

[2] = Plasma protein binding assay (equilibrium dialysis), rat plasma; format: in vitro ADME; conditions: pH 7.4, equilibrium dialysis 5 hours, read-out: Plasma protein binding rate (%) (converted)
Procedure: • 1. Test purpose: to evaluate the protein binding rate of the test compound in human, dog, monkey, rat and mouse plasma by equilibrium dialysis; • 2. […] Experimental methods: • 0.1 mol/L sodium phosphate and 0.15 mol/L sodium chloride buffer with pH 7.4±0.1 was preheated;
Preparation of plasma containing test substance: the test compound was dissolved in DMSO to prepare a 10 mmol/l stock solution. 5 μL of stock solution was taken and diluted with 95 μL of acetonitrile to obtain solution A (0.5 mmol/L). 8 μL of solution A was taken and diluted with 192 μL of 0.1 mol/L sodium phosphate buffer to obtain solution B (0.02 mmol/L). 570 μL of plasma was added into a 96-well plate followed by the addition of 30 μL of solution B. The final concentration was 1 μmol/L with 0.01% DMSO.
The plate was shook at 600 rpm for 10 minutes, covered and stored in a freezer (−20° C.).
T5 sample preparation (in triplicate): the dialysis device was added with 100 μL of buffer on its receiver side and 100 μL of plasma containing the test compound on its doner side. And the dialysis device was then shook at 37° C. and 120 rpm for 5 hours. At the end of culture, 25 μL of plasma containing the test substance was taken from the plasma side and then added to a 96-well plate, followed by the addition of 25 μL of buffer and 200 μL of acetonitrile solution containing internal standard. […]

[3] = molecular target: T1, CYP1A2 (Homo sapiens, UniProt P05177); assay: CYP inhibition test, human liver microsomes, CYP1A2
T1 sequence (P05177 1-516): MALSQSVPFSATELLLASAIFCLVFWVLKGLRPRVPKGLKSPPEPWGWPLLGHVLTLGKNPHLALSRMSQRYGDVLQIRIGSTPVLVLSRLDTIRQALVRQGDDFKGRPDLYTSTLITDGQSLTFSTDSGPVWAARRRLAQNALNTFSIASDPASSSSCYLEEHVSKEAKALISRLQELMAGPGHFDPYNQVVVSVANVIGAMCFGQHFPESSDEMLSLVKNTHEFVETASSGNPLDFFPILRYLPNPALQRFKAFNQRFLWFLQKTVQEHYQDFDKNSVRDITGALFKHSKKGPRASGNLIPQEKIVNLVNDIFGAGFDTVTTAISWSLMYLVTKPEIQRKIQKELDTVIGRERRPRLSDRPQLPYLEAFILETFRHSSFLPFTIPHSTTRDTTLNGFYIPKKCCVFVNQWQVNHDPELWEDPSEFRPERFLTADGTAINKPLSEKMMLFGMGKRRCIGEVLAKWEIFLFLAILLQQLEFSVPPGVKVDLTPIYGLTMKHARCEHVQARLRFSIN
Procedure: as §1, §2

Sequence of CYP 2C9 (P11712 whole entry): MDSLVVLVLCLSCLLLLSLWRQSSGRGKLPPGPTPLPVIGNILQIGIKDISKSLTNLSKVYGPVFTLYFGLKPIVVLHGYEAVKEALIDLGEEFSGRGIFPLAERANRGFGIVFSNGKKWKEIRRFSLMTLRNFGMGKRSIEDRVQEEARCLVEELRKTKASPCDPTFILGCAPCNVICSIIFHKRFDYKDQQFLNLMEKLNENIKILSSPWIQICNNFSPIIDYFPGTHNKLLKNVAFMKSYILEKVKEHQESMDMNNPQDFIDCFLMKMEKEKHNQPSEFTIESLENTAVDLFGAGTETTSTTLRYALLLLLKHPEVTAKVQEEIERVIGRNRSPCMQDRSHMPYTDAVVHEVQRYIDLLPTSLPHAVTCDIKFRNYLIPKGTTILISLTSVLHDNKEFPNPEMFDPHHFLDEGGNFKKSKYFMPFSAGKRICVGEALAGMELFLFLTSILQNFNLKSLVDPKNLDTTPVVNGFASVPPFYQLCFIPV

Q: With `C=CC(=O)N1CCN(c2nc(=O)n(-c3c(C)ccnc3C(C)C)c3nc(-c4c(O)cccc4F)c(F)cc23)[C@@H](C)C1` [AMG510] as the molecule, how does the IC50 [1] read?
A: The IC50 was > 10 µM.

Q: And the fraction unbound at 5 h, 1 μmol/L [2]?
A: Its fraction unbound at 5 h, 1 μmol/L is 0.141.

Q: What about the IC50 [3] of the same molecule?
A: The IC50 was > 10 µM.

Q: With `C=C(F)C(=O)N1CCN(c2nc(OC[C@@H]3CCCN3C)nc3c2CCN(c2cccc4cccc(Cl)c24)C3)C[C@@H]1CC#N` [MRTX849] as the molecule, how does the IC50 [1] read?
A: Its IC50 is 1.35 µM.

Q: And the fraction unbound at 5 h, 1 μmol/L [2]?
A: The fraction unbound at 5 h, 1 μmol/L was 0.01.

Q: What about the IC50 [3] of the same molecule?
A: The IC50 was > 10 µM.
